The values that follow come from PMC5430738, “Psiguajadials A–K: Unusual Psidium Meroterpenoids as Phosphodiesterase-4 Inhibitors from the Leaves of Psidium guajava” (Scientific Reports, 2017).

Bounds are passed on as bounds.

In the experiment the target is T1, PDE4D2 (Homo sapiens, UniProt Q08499).
T1 construct: human PDE4D2 (catalytic domain, residues 86 –413); made in house; host or cells: E. coli BL21 (Codonplus)
In words: PDE4D2 enzymatic inhibition assay (3H-cAMP substrate). In kind it is biochemical. As to conditions: human PDE4D2 catalytic domain, 25 °C, 15 min, read-out: IC50 against PDE4D2. From the text: The protocols for expression, purification, and enzymatic assays of PDE4D2 were similar to those we described previously. More details about the experimental procedures are provided in Supplementary S3.
S3. Experimental section Extraction and isolation and PDE4D assay
S3.1. Extraction and isolation […]
S3.2. Expression and purification of PDE4D2 prot ein
subcloned into the expression vector pET15b. All these resultant plasmids were transformed into E.
coli strain BL21 (Codonplus) for over expression. The E. coli cells carrying these plasmids were
grown in LB medium at 37 /g113C to OD600 = 0.7, and then 0.1 mM isopropyl
/g69-D-thiogalactop yranoside was added for further growth at 16 /g113C for 20–40 h. The recombinant
protein was purified by Ni-NTA column (Qiagen).
The enz ymatic activities of PDE4D cat al ytic domain and the inhibition of PDE4D by extracted
reactions were occured in mixture containing 50 mM Tris/HCl (pH 7.5), 10 mM MgCl2, 0.5 mM
DTT at room temperature (25 /g113C) for 15 min. The reactions were terminated by addition of 0.2 M
Zn S O 4 and Ba(OH)2. The reaction product 3H-AMP was precipitated out, while unreacted
3H-cAMP remained in the supernatant. The mechanism was illustrated as shown below (Scheme
S3.2). Radioactivity in the supernatant was measured in 2.5 mL Ultima Gold liquid scintillation
repeated at least three times. The IC 50 values were calculated by nonlinear regression. As a […]

T1 sequence (Q08499 388-715): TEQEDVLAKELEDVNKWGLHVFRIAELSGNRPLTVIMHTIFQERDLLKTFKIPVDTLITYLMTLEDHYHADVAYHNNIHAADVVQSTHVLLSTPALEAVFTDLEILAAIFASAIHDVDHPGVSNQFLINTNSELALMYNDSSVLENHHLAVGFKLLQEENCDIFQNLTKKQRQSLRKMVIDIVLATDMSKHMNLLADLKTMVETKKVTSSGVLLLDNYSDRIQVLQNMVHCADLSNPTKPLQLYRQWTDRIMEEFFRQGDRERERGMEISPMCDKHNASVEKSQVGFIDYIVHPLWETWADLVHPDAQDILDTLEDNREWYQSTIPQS

For orientation: IC50 means the concentration that inhibits the measured activity by half. With `CC1=CCC(C)(C)C=CCC2(C)Oc3c(C=O)c(O)c(C=O)c(O)c3C(c3ccccc3)C2CC1` (single isomer, unassigned; (+)) [Compound 15, (+)-guajadial B], the IC50 was > 50000 nM. The value for `CC1=CCC(C)(C)C=CCC2(C)Oc3c(C=O)c(O)c(C=O)c(O)c3C(c3ccccc3)C2CC1` (single isomer, unassigned; (-)) [Compound 14, (−)-guajadial B] was > 50000 nM; that for `CC(C)C1CCC(C)C23CCC4(CC(c5ccccc5)c5c(O)c(C=O)c(O)c(C=O)c5O4)C2C13` (stereo not shown) [Compound 1, Psiguajadial A] was 3110 ± 100 nM.

With `CC(C)C1CCC(C)C23CC4C(c5ccccc5)c5c(O)c(C=O)c(O)c(C=O)c5OC4(C)C2C13` (stereo not shown) [Compound 2, Psiguajadial B], the IC50 was found to be 5030 ± 330 nM. The value for `CC1=C2C3CC(C)(C(c4ccccc4)c4c(O)c(C=O)c(O)c(C=O)c4O3)C2C2C(CC1)C2(C)C` (stereo not shown) [Compound 3, Psiguajadial C] was 4500 ± 280 nM; that for `C=C1CCC2Cc3c(O)c(C=O)c(O)c(C(=O)c4ccccc4)c3OC2(C)CCC2C1CC2(C)C` (stereo not shown) [Compound 4, Psiguajadial D] was 4140 ± 260 nM; that for `CC1=CCCC2(C)C(c3ccccc3)c3c(O)c(C=O)c(O)c(C=O)c3OC2C2C(CC1)C2(C)C` (stereo not shown) [Compound 5, Psiguajadial E] was 3250 ± 200 nM. The value for `CC1(C)CC2C1CCC13CC2(C)CCC1C(c1ccccc1)c1c(O)c(C=O)c(O)c(C=O)c1O3` (stereo not shown) [Compound 6, Psiguajadial F] was 2630 ± 130 nM.

On to `C=C1CCC2C(c3ccccc3)c3c(O)c(C=O)c(O)c(C=O)c3OC2(C)CCC2C1CC2(C)C` (stereo not shown) [Compound 7, Psiguajadial G], for which the 50% inhibitory concentration (IC50) is 1340 ± 330 nM. In the case of `CC(C)C1CCC(C)C2CCC3(C=C12)CC(c1ccccc1)c1c(O)c(C=O)c(O)c(C=O)c1O3` (stereo not shown) [Compound 8, Psiguajadial H], the concentration for half-maximal inhibition (IC50) came to 1810 ± 90 nM.

For `CC(C)C1CCC(C)C2CCC3(C=C12)CC(c1ccccc1)c1c(O)c(C=O)c(O)c(C=O)c1O3` (stereo not shown) [Compound 9, Psiguajadial I], the IC50 was 2510 ± 170 nM.

Regarding `CC(C)C1CCC(C)C2CC3C(c4ccccc4)c4c(O)c(C=O)c(O)c(C=O)c4OC3(C)C=C12` (stereo not shown) [Compound 10, Psiguajadial J], the IC50 came out at 2530 ± 330 nM. In the case of `CC(C)C12CCC3(CC(c4ccccc4)c4c(O)c(C=O)c(O)c(C=O)c4O3)C1C2` (stereo not shown) [Compound 11, Psiguajadial K], the half-maximal inhibitory concentration (IC50) amounted to 3680 ± 270 nM. As to `CC1=CCCC2(C)Oc3c(C=O)c(O)c(C=O)c(O)c3C(c3ccccc3)C2C2C(CC1)C2(C)C` (stereo not shown) [Compound 12, Guajavadial C], the half-maximal inhibitory concentration (IC50) worked out at 4330 ± 210 nM. Take `CC1=CCCC2(C)C(c3ccccc3)c3c(O)c(C=O)c(O)c(C=O)c3OC2C2C(CC1)C2(C)C` (stereo not shown) [Compound 13, psiguadial D]: the IC50 is 3420 ± 210 nM.

On to `CC1CCC2C(C3C4(C)CCC13Oc1c(C=O)c(O)c(C=O)c(O)c1C4c1ccccc1)C2(C)C` (stereo not shown) [Compound 16, psiguadial A], for which the IC50 was 7260 ± 410 nM.

In the case of `C=C1CCC2Cc3c(O)c(C(=O)c4ccccc4)c(O)c(C=O)c3OC2(C)CCC2C1CC2(C)C` (stereo not shown) [Compound 17, guapsidial A], the IC50 was found to be 5610 ± 510 nM.

Regarding `C=C1CCC2C(c3ccccc3)c3c(O)c(C=O)c(O)c(C=O)c3OC2(C)CCC2C1CC2(C)C` (stereo not shown) [Compound 18, psidial A], the half-maximal inhibitory concentration (IC50) was 1600 ± 90 nM. The value for `C=C1CCC2C(c3ccccc3)c3c(O)c(C=O)c(O)c(C=O)c3OC2(C)CCC2C1CC2(C)C` (stereo not shown) [Compound 19, guajadial] was 1620 ± 80 nM; that for `C=C1CCC2C(c3ccccc3)c3c(O)c(C=O)c(O)c(C=O)c3OC2(C)CCC2C1CC2(C)C` (stereo not shown) [Compound 20, psiguajadial L] was 1370 ± 70 nM. The value for `CC(C)C1CCC(C)C2CCC3(C=C12)CC(c1ccccc1)c1c(O)c(C=O)c(O)c(C=O)c1O3` (stereo not shown) [Compound 21, Guajadial C] was 2280 ± 110 nM; that for `CC(C)C1CCC(C)C2CCC3(C=C12)CC(c1ccccc1)c1c(O)c(C=O)c(O)c(C=O)c1O3` (stereo not shown) [Compound 22, Guajadial D] was 1930 ± 110 nM.

For the compound `CC(C)C1CCC(C)C2CC3C(c4ccccc4)c4c(O)c(C=O)c(O)c(C=O)c4OC3(C)C=C12` (stereo not shown) [Compound 23, Guajadial E], the 50% inhibitory concentration (IC50) came out at 2730 ± 150 nM. Consider `CC(C)C1CCC(C)C2CC3C(c4ccccc4)c4c(O)c(C=O)c(O)c(C=O)c4OC3(C)C=C12` (stereo not shown) [Compound 24, Guajadial F], for which the IC50 was found to be 2670 ± 170 nM. The figure for `CC(C)C12CC3C(c4ccccc4)c4c(O)c(C=O)c(O)c(C=O)c4OC3(C)C1C2` (stereo not shown) [Compound 25, guajavadial A] is 2010 ± 70 nM; for `CC(C)C12CCC3(CC(c4ccccc4)c4c(O)c(C=O)c(O)c(C=O)c4O3)C1C2` (stereo not shown) [Compound 26, guadial A] it is 2700 ± 150 nM. The value for `CC1(C)C2CC3C(c4ccccc4)c4c(O)c(C=O)c(O)c(C=O)c4OC3(C)C1C2` (stereo not shown) [Compound 27, guadial B] was > 50000 nM; that for `CC1(C)C2CCC3(CC(c4ccccc4)c4c(O)c(C=O)c(O)c(C=O)c4O3)C1C2` (stereo not shown) [Compound 28, guadial C] was 17100 ± 960 nM.
